Patent publication US20260286370A1, “METHODS FOR RAPID AGROBACTERIUM-MEDIATED SUNFLOWER STABLE TRANSFORMATION” (SYNGENTA CROP PROTECTION AG, priority 2023, published 2026)

Columns and labels:
Assay type in all cases: in vivo, Helianthus annuus
[1] = test system: sunflower cotyledon explants; experiment: Shoot induction rate of cotyledon explants with different plant hormone (conventional process); settings: conventional in vitro process
Experimental: The most efficient regeneration and transformation system reported using cotyledon as explants was evaluated.

sunflower explants [2] = experiment: Transformation efficiency with different cytokinin in germination medium (Protocol V2); settings: variety F75400; for No. resistant shoot: hormone in germination medium: TDZ 4 mg/L (68 explants), BAP 5 mg/L (71 explants); for # of Resistant plants with GFP / Rate of resistant plants with GFP (%) / Resistant shoot rate: hormone in germination medium: TDZ 4 mg/L, BAP 5 mg/L
From the text: Adding different cytokinin into germination medium can improve shoot induction rate and TF. The resistant plantlets were generated with normal shoots and roots, which was further confirmed by visualizing green fluorescent protein expression (GFP). (Experiment alias: SF-52-SP-24545, SF-66-SP-24545, SF-81-SP-24545; variety: F75400).

[3] = test system: sunflower explants from 1-day imbibed seeds; experiment: Transformation efficiency with different concentration of TDZ in infection medium (Protocol V1); settings: for # of TaqMan Positive Events / TF: variety F75400, vector 24545
Experimental: Agrobacterium from storage at −80° C. were streaked to YP (Yeast Peptone) medium with 100 mg/L spectinomycin and 50 mg/L kanamycin at least 3 days before infection. They were re-streaked to a new YP medium plate with some concentrations of spectinomycin and kanamycin 1 day before infection. The Agrobacterium were then collected and re-suspended in infection liquid medium (containing MS basal salts and B5 vitamins, sucrose 20 g/L, glucose 10 g/L, MES, 4 g/L, zeatin riboside 2 mg/L, 3-10 mg/L TDZ, 80 mg/L acetosyringone (AS), 150 mg/L dithiothreitol (DTT), pH=5.5). The concentration of the Agrobacterium was adjusted until OD660=0.6.
One cotyledon of the split germinated seeds was removed with a scalpel to expose the shoot apex with its two primary leaves. The two primary leaves were completely removed to expose the apical meristem and the apical region was gently wounded with the sharp end of a scalpel. The resultant explants were then placed in an Agrobacterium suspension and add 1/1000 10% F68; the suspension was then placed under vacuum at 800-900-mbar for 5-30 min followed by sonication at 45 kHz for 30-60s with gentle shaking. The explants were inoculated for 2-3 hours with the Agrobacterium with 50-80 rpm shaking.
After inoculation in (3), the Agrobacterium suspension was removed, and the explants were then placed onto a piece of filter paper in a petri dish which prewetted by 0.5 ml co-cultivation media (MS basal salts and vitamins, MS iron, zeatin 1 mg/L, sucrose 10 g/L, glucose 5 g/L, MES 2 g/L, acetosyringone 20 mg/L, silver nitrate 0.5 mg/L) with the adaxial side up. One side of the filter paper was covered, and the petri dish was sealed with parafilm. Approximately 10~20 explants were placed per petri dish. The explant and Agrobacterium were co-cultured for 4 days in low-illumination condition: PAR (photosynthetically active radiation) 40 μmol m−2 s−1 with 16/8 light/dark condition. The plate containing explants was covered with a steel tray in an incubator (PERVICAL® Scientific Chambers, Perry, IA). These conditions were chosen to increase infection and prevent embryo deterioration. The explants were then co-cultured at 22° C. in the dark for 3-6 days in growth chamber.
After co-culture, the explants were transferred onto SFR1 medium for shoot regeneration (Gamborg B5 basal salts and B5 vitamins, MS Iron 200×, sucrose 20 g/L, MES 1 g/L, timentin 150 mg/L, carbenicillin 150 mg/L, agar 7.5 g/L, lipoic acid-50 mM, BAP 1 mg/L). The SFR1 medium also contained a selection agent (i.e., spectinomycin 50-150 mg/L). The explants were allowed to culture on SFR1 media in the dark at 25° C. for 3-6 days, and then grown under light (16/8 light/dark) at 25° C. for 9-14 days. FIGS. 6A-D show formation of the primary shoots with GFP expression.
Different concentrations of TDZ in the infection medium were tested to assess if TDZ concentration impacts transformation (Experiment alias: SF-52-SP-24545, SF-66-SP-24545, SF-81-SP-24545; variety: F75400). The process of transformation with explants from 1-day imbibed seeds was as described above. TDZ was added in the infection medium during the infection process for 2-4 hours. A TDZ concentration of 3-10 mg/L was used.

sunflower explants [4] = experiment: Transformation frequency by selection system (aadA or ALS selectable marker); settings: substance used as selection agent (aadA marker for spectinomycin, ALS marker for bensulfuron-methyl)
From the text: As the Examples indicate, multiple transgenic-shoot structures were induced from infected explant tissues. Then the explants were shortly selected on selection media with selection agent (7-14 days, Spectinomycin as selection agent) and transplanted into soil to allow shoot and root development under controlled conditions (in growth chamber). From multiple experiments, transgenic events were successfully generated with aadA or ALS as selectable markers (spectinomycin and bensulfuron-methyl as selection agents respectively). The transformation frequency (TF) is 8.2% for spectinomycin selection, and 3.6% for bensulfuron-methyl selection system.

sunflower explants [5] = experiment: Resistant frequencies with different concentration of spectinomycin in selection medium (Protocol V2); settings: F75400
Experimental: Transformed sunflower explants was transferred onto regeneration media by inserting cotyledon with meristem region into solid medium with a selection agent. Hypocotyl was left untouching the medium. The hypocotyl was covered with sterilized matrix and put the jar in 22° C., 16/8 h light/dark. The regeneration step lasted for 7-14 days. Specifically, after co-culture, the mature seeds were placed on regeneration medium as follows: cotyledon/meristem region was inserted into solid medium with a selection agent (100 mg/L spectinomycin), the hypocotyl was left upside (the whole seeds were upside down); the container was covered with sterilized matrix (soil mixture) and placed in growth chamber for inducing shooting and rooting simultaneously under short time selection (7-14 days).
Selection medium with spectinomycin 100-800 mg/L was tested. The resistant plantlets are generated with normal shoots and roots, further confirmed by visualizing GFP. […] (Experiment alias: SF-23-SP-24545; variety: F75400).

[6] = TDZ 3 mg/L in infection medium, 65 explants
[7] = TDZ 4 mg/L in infection medium, 49 explants
[8] = TDZ 8 mg/L in infection medium, 42 explants
[9] = TDZ 10 mg/L in infection medium, 37 explants
[10] = spectinomycin 100 mg/L in selection medium, SF23A, 89 explants
[11] = spectinomycin 200 mg/L in selection medium, SF23B, 67 explants
[12] = spectinomycin 300 mg/L in selection medium, SF23C, 61 explants
[13] = spectinomycin 500 mg/L in selection medium, SF23D, 68 explants
[14] = spectinomycin 800 mg/L in selection medium, SF23E, 70 explants

Structure (SMILES): c1ccc(CNc2ncnc3nc[nH]c23)cc1 [BAP, 6-benzylaminopurine]
- Shoot induction rate (%) [1]: 2%
- No. resistant shoot (sunflower explants [2]): 6
- # of Resistant plants with GFP (sunflower explants [2]): 5
- Rate of resistant plants with GFP (%) (sunflower explants [2]): 7%
- Resistant shoot rate (sunflower explants [2]): 8%

Structure (SMILES): O=C(Nc1ccccc1)Nc1cnns1 [TDZ, 1-phenyl-3-(1,2,3-thiadiazol-5-yl)urea]
- # of TaqMan Positive Events [3, 6]: 1
- TF [3, 6]: 1.5%
- # of TaqMan Positive Events [3, 7]: 4
- TF [3, 7]: 8.2%
- # of TaqMan Positive Events [3, 8]: 3
- TF [3, 8]: 7.1%
- # of TaqMan Positive Events [3, 9]: 1
- TF [3, 9]: 2.7%
- Effect on shoot induction rate and transformation efficiency ([3]; TDZ 3-10 mg/L in infection medium for 2-4 hours): significantly improve shoot induction rate and transformation efficiency
- No. resistant shoot (sunflower explants [2]): 7
- # of Resistant plants with GFP (sunflower explants [2]): 5
- Rate of resistant plants with GFP (%) (sunflower explants [2]): 7%
- Resistant shoot rate (sunflower explants [2]): 10%

Structure (SMILES): COC(=O)c1ccccc1CS(=O)(=O)NC(=O)Nc1nc(OC)cc(OC)n1 [bensulfuron-methyl]
- transformation frequency (TF) (sunflower explants [4]): 3.6%

Structure (SMILES): CN[C@@H]1[C@H](O)[C@H](NC)[C@H]2O[C@@]3(O)C(=O)C[C@@H](C)O[C@H]3O[C@@H]2[C@H]1O [Spectinomycin, spectinomycin]
- Generation of resistant shoots (sunflower explants [5]; all spectinomycin concentrations from 100 mg/L to 800 mg/L): generated resistant shoots
- # of Resistant plants with GFP (sunflower explants [5]; [10]): 10
- Rate of resistant plants with GFP (%) (sunflower explants [5]; [10]): 11%
- Rooting rate (%) (sunflower explants [5]; [10]): 66%
- Shooting Rate (%) (sunflower explants [5]; [10]): 40%
- # of Resistant plants with GFP (sunflower explants [5]; [11]): 6
- Rate of resistant plants with GFP (%) (sunflower explants [5]; [11]): 9%
- Rooting rate (%) (sunflower explants [5]; [11]): 36%
- Shooting Rate (%) (sunflower explants [5]; [11]): 18%
- # of Resistant plants with GFP (sunflower explants [5]; [12]): 2
- Rate of resistant plants with GFP (%) (sunflower explants [5]; [12]): 3%
- Rooting rate (%) (sunflower explants [5]; [12]): 30%
- Shooting Rate (%) (sunflower explants [5]; [12]): 16%
- # of Resistant plants with GFP (sunflower explants [5]; [13]): 2
- Rate of resistant plants with GFP (%) (sunflower explants [5]; [13]): 3%
- Rooting rate (%) (sunflower explants [5]; [13]): 18%
- Shooting Rate (%) (sunflower explants [5]; [13]): 10%
- # of Resistant plants with GFP (sunflower explants [5]; [14]): 1
- Rate of resistant plants with GFP (%) (sunflower explants [5]; [14]): 1%
- Rooting rate (%) (sunflower explants [5]; [14]): 9%
- Shooting Rate (%) (sunflower explants [5]; [14]): 9%
- transformation frequency (TF) (sunflower explants [4]): 8.2%
